In US20250082633A1, “COMPOUNDS AND METHODS FOR MODULATING SPLICING” (REMIX THERAPEUTICS INC., priority 2021, published 2025) one finds GI50 and IC50 data, which are given here for 15 compounds.

Bounds are passed on as bounds.

One assay has as its system K562 cells. Nature of the assay: Cell Titer Glo 2.0 cell viability assay. Type of assay: cell-based. The settings on record: Homo sapiens, 500 cells/well, 72 hours. In a few lines:
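K562 cells (500/well) in IMDM with 10% FBS were exposed to serially diluted compounds at 0.1% DMSO final. After 72 h at 37° C, 5% CO2, viability was read by CellTiter-Glo 2.0 luminescence, with medium-only blanks.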
(ATP-based viability assays read luminescence as a measure of living cells.)

The test system of the next assay is Target C. Nature of the assay: HiBit protein abundance assay, Target C. Type of assay: cell-based. Particulars: Homo sapiens; K562 HiBiT-modified cells, 24 hours, luminescence. On the procedure:
Compounds described herein were used to screen for effects on quantitative protein abundance using a HiBit assay system (Promega). Quantitative protein abundance was determined by measuring the protein levels of HiBit-tagged protein targets expressed in cell culture via luminescence using the Nano-Glo HiBiT Lytic Detection System, which uses a split complementation assay format to reconstitute NanoBiT enzyme to generate a luminescent signal. A protein abundance assay was developed such that endogenous protein targets could be modified with the HiBiT peptide tag and their abundance could be assessed after compound treatment. Briefly, K562 cell lines containing a HiBiT-modification were treated with various compounds described herein (e.g., compounds of Formulas (I), (II), or (III)). After treatment for 24 hours, the protein abundance of a specific target was determined by measuring luminescence. • Promega Nano-Glo HiBiT Lytic Detection System (cat #N3030) • Corning 384-well TC-treated microplates (cat #3570) • Synthego Engineered Cells Knock-In Clones Cells were maintained in IMDM with 10% FBS. Before the assay, cells were diluted with phenolphthalein-free growth media (IMDM+1% FBS media) and were seeded in a 384-well plate at a density of 10000 cells/well (for each cell line listed in Table 6). Each compound was prepared as a 10-point 3-fold serial dilution in DMSO with the top dose at a final concentration of 10 μM in the well. Unmodified K562 cells were added at the previously specified density with DMSO to serve as an assay baseline and positive control (PC) and DMSO only with the respective modified cell lines was added to the negative control (NC) columns. Final DMSO concentration was kept at or below 0.25%. Treated cell plates were placed in an incubator at 37° C. with 5% CO2 for 24 hours. After 24 hours, 25 μL of Complete HiBit Lytic reagent was added to each well at room temperature (e.g. one plate requiring 10 mL Lytic Buffer, 100 μL LgBiT Protein, 200 μL Lytic Substrate), shaken for 5 minutes at 600 RPM, then left to sit for 10 minutes for signal to stabilize before reading on a Spark Cyto plate reader (Tecan) with a 500 ms measurement time. To determine compound effects on protein abundance of each target in Table 6, the percent response for each respective cell line was calculated at each compound concentration as follows: For the normalized response at each concentration, a four-parameter logistical regression was fit to the data and the response was interpolated at the 50% value to determine a concentration for protein abundance at 50% (IC50) the untreated control.
Background: HiBiT is a short tag that completes a luciferase, so light tracks the accessible tagged protein.

In the assay with K562 cells, `Cc1nc2c(F)cc(-c3cc(F)c4nn(C5CCNCC5)cc4c3)cc2o1` [Compound 136, 4-fluoro-6-[7-fluoro-2-(4-piperidyl)indazol-5-yl]-2-methyl-1,3-benzoxazole] displayed a GI50 of 0.1 to 1 µM. The same compound had an IC50 with Target C of under 0.1 µM.

For the compound `Cn1cc2cc(-c3cc(F)c4nn(C5CCNCC5)cc4c3)cc(C#N)c2n1` [Compound 130, 5-[7-fluoro-2-(4-piperidyl)indazol-5-yl]-2-methyl-indazole-7-carbonitrile], in the assay on K562 cells, the GI50 fell in the range of 0.1 to 1 µM. The same compound showed an IC50 with Target C of under 0.1 µM.

Turning to `COc1cc(-c2cc(C)c3nc(C)cn3n2)cc2cn(C3CCNCC3)nc12` [Compound 155, 6-(7-methoxy-2-(piperidin-4-yl)-2H-indazol-5-yl)-2,8-dimethylimidazo [1,2-b]pyridazine], the GI50 in the assay on K562 cells is 0.1 to 1 µM. The compound further gave an IC50 with Target C of 0.1 to 1 µM.

`Cc1ccc2cc(-c3cc(F)c4nn(C5CCNCC5)cc4c3)ccc2n1` [Compound 163, 6-[7-fluoro-2-(4-piperidyl)indazol-5-yl]-2-methyl-quinoline] returned a GI50 with K562 cells of 1 to 10 µM. The compound further returned an IC50 in the assay with Target C of 1 to 10 µM.

In the assay on K562 cells, `Cc1cn2cc(-c3cc(F)c4nn(C5CCNCC5)cc4c3)nc(C)c2n1` [Compound 132, 6-[7-fluoro-2-(4-piperidyl)indazol-5-yl]-2,8-dimethyl-imidazo[1,2-a]pyrazine] registered a GI50 of 1 to 10 µM. Further, in the assay on Target C, the IC50 lay in the range of 0.1 to 1 µM.

`Cn1cc2cc(-c3ccc4cn(C5CCNCC5)nc4c3)cc(F)c2n1` [Compound 148, 7-fluoro-2-methyl-5-[2-(4-piperidyl)indazol-6-yl]indazole] had a GI50 with K562 cells of over 10 µM. The IC50 in the assay on Target C is over 10 µM.

Consider `Fc1cc(-c2ccc3ccncc3c2)cc2cn(C3CCNCC3)nc12` [Compound 158, 7-[7-fluoro-2-(4-piperidyl)indazol-5-yl]isoquinoline], for which the GI50 with K562 cells was in the range of 1 to 10 µM. In addition, the IC50 in the assay with Target C lay within 1 to 10 µM.

In the assay on K562 cells, `Cc1cn2nc(-c3cc(F)c4nn(CC5CCNCC5)cc4c3)cc(C)c2n1` [Compound 212, 6-[7-fluoro-2-(4-piperidylmethyl)indazol-5-yl]-2,8-dimethyl-imidazo[1,2-b]pyridazine] displayed a GI50 of 0.1 to 1 µM. Also, the IC50 with Target C was under 0.1 µM.

On to `COC1=C(C)C2N=C(C)OC2C=C1c1cc(F)c2nn(C3CCNCC3)cc2n1` (stereo not drawn) [Compound 144], for which the GI50 with K562 cells lay in the range of 1 to 10 µM. Also, the half-maximal inhibitory concentration (IC50) with Target C was 1 to 10 µM.

`Cc1ncc2cc(-c3cc(F)c4nn(C5CCNCC5)cc4c3)ccc2n1` [Compound 165, 6-[7-fluoro-2-(4-piperidyl)indazol-5-yl]-2-methyl-quinazoline] showed a GI50 in the assay with K562 cells of over 10 µM. In the assay on Target C, the IC50 is over 10 µM.

`Cc1cn2nc(-c3cc(F)c4nn(C5CCN(CC6CC6)CC5)cc4c3)cc(C)c2n1` [Compound 149, 6-[2-[1-(cyclopropylmethyl)-4-piperidyl]-7-fluoro-indazol-5-yl]-2,8-dimethyl-imidazo[1,2-b]pyridazine]: in the assay on K562 cells, the GI50 is under 0.1 µM. For the same compound, the IC50 in the assay with Target C was under 0.1 µM.

For `Cn1cc2cc(-c3ccc4nn(C5CCNCC5)cc4n3)c(O)cc2n1` [Compound 110, 2-methyl-5-[2-(4-piperidyl)pyrazolo[4,3-b]pyridin-5-yl]indazol-6-ol], the GI50 in the assay with K562 cells lay in the range of 1 to 10 µM. Also, in the assay with Target C, the half-maximal inhibitory concentration (IC50) lay within 0.1 to 1 µM.

The compound `COc1cc2nn(C3CCNCC3)cc2cc1-c1cc(C)c2nc(C)cn2n1` [Compound 159, 6-(6-methoxy-2-(piperidin-4-yl)-2H-indazol-5-yl)-2,8-dimethylimidazo[1,2-b]pyridazine] displayed a GI50 with K562 cells of over 10 µM. This compound came in with an IC50 in the assay with Target C of over 10 µM.

Consider `Fc1cc(-c2ccc3ncccc3c2)cc2cn(C3CCNCC3)nc12` [Compound 162, 6-[7-fluoro-2-(4-piperidyl)indazol-5-yl]quinoline], for which the GI50 with K562 cells fell in the range of 1 to 10 µM. In the assay with Target C, this compound registered an IC50 of 1 to 10 µM.

Consider `Cn1cc2cc(-c3cc(F)c4nn(C5CCNCC5)cc4c3)ccc2n1` [Compound 145, 7-fluoro-5-(2-methylindazol-5-yl)-2-(4-piperidyl)indazole], for which the 50% growth inhibitory concentration (GI50) in the assay on K562 cells is 1 to 10 µM. The same compound came in with a 50% inhibitory concentration (IC50) with Target C of 0.1 to 1 µM.

Usually GI50 stands for the concentration that inhibits growth by half. A low value points to greater sensitivity of the cells. The term IC50 denotes the point on the concentration scale where inhibition reaches its midpoint.
